Reference: patent publication US20140065103A1 (VERTEX PHARMACEUTICALS INCORPORATED, priority 2010, published 2014)
pIC50: −log10 of the molar value.

Experiments:
[1] = [3H]Thymidine incorporation assay (cytotoxicity, CC50); details: human
[2] = test system: HCV sub-genomic replicon of genotype 1a in replicon cell line W11.8; experiment: microbe, parasite or virus in culture; type: cell-based, Hepatitis C virus; details: Hepatitis C virus, W11.8, 96 h, read-out: HCV-Replicon-ELISA-1a IC50

| SMILES | CC50 at 72 h [1] [µM] | pIC50 [2] |
| --- | --- | --- |
| Cc1ccc(C(=O)N(c2cc(C#CC(C)(C)C)sc2C(=O)O)[C@H]2CC[C@H](O)CC2)c(F)c1 [Compound 85, 5-(3,3-Dimethyl-but-1-ynyl)-3-[(2-fluoro-4-methyl-benzoyl)-(trans-4-hydroxy-cyclohexyl)-amino]thiophene-2-carboxylic acid] | 10 to 100 | > 7.00 |
| CC(C)(C)C#Cc1cc(N(C(=O)c2ccc(Cl)cc2)[C@H]2CC[C@H](O)CC2)c(C(=O)O)s1 [Compound 81, 3-[(4-Chloro-benzoyl)-(trans-4-hydroxy-cyclohexyl)-amino]-5-(3,3-dimethyl-but-1-ynyl)-thiophene-2-carboxylic acid] |  | 6.00 to 7.00 |
| CC(C)(C)C#Cc1cc(N(C(=O)[C@H]2CC[C@H](C)CC2)[C@@H]2CCNC2)c(C(=O)O)s1 [Compound 58, 5-(3,3-Dimethylbut-1-yn-1-yl)-3-((trans)-4-methyl-N—((R)-pyrrolidin-3-yl)cyclohexanecarboxamido)thiophene-2-carboxylic acid] | > 100 | > 7.00 |
| CC(C)(C)C#Cc1cc(N(CCN2CCOCC2)C(=O)[C@H]2CC[C@H](C)CC2)c(C(=O)O)s1 [Compound 48, 5-(3,3-Dimethylbut-1-yn-1-yl)-3-(trans-4-methyl-N-(2-morpholinoethyl)cyclohexanecarboxamido)thiophene-2-carboxylic acid] | 10 to 100 | > 7.00 |
| CC(C)(C)C#Cc1cc(N(Cc2cccnc2)C(=O)[C@H]2CC[C@H](C)CC2)c(C(=O)O)s1 [Compound 1] | 10 to 100 | > 7.00 |
| Cn1cncc1CN(c1cc(C#CC(C)(C)C)sc1C(=O)O)C(=O)[C@H]1CC[C@H](C)CC1 [Compound 66, 5-(3,3-Dimethylbut-1-ynyl)-3-((trans)-4-methyl-N-((1-methyl-1H-imidazol-5-yl)methyl)cyclohexanecarboxamido)thiophene-2-carboxylic acid] | > 100 | > 7.00 |
| CC(C)N(c1cc(C#CC(F)(F)F)sc1C(=O)O)C(=O)[C@H]1CC[C@H](C)CC1 [Compound 23, 3-[Isopropyl-(trans-4-methyl-cyclohexanecarbonyl)-amino]-5-trifluoroprop-1-ynyl-thiophene-2-carboxylic acid] | 10 to 100 | 6.00 to 7.00 |
| CC(C)(C)C#Cc1cc(N(C(=O)c2ccccc2Cl)[C@H]2CC[C@H](O)CC2)c(C(=O)O)s1 [Compound 87, 3-[(2-Chloro-benzoyl)-(trans-4-hydroxy-cyclohexyl)-amino]-5-(3,3-dimethyl-but-1-ynyl)-thiophene-2-carboxylic acid] |  | 5.00 to 6.00 |
| CC(C)(C)C#Cc1cc(N(C(=O)c2ccc(Cl)c(F)c2)[C@H]2CC[C@H](O)CC2)c(C(=O)O)s1 [Compound 94, 3-[(4-Chloro-3-fluoro-benzoyl)-(trans-4-hydroxy-cyclohexyl)-amino]-5-(3,3-dimethyl-but-1-ynyl)-thiophene-2-carboxylic acid] |  | 6.00 to 7.00 |
| CC(C)(C)C#Cc1cc(N(CC(=O)O)C(=O)[C@H]2CC[C@H](C)CC2)c(C(=O)O)s1 [Compound 2, 3-[Carboxymethyl-(trans-4-methyl-cyclohexanecarbonyl)-amino]-5-(3,3-dimethyl-but-1-ynyl)-thiophene-2-carboxylic acid] | > 100 | 6.00 to 7.00 |
| Cc1ccc(C(=O)N(c2cc(C#CC(C)(C)C)sc2C(=O)O)[C@H]2CC[C@H](O)CC2)cc1 [Compound 86, 5-(3,3-Dimethyl-but-1-ynyl)-3-[(trans-4-hydroxy-cyclohexyl)-(4-methyl-benzoyl)-amino]-thiophene-2-carboxylic acid] | 10 to 100 | > 7.00 |
| Cn1cc(CN(c2cc(C#CC(C)(C)C)sc2C(=O)O)C(=O)[C@H]2CC[C@H](C)CC2)cn1 [Compound 67, 5-(3,3-Dimethylbut-1-ynyl)-3-((trans)-4-methyl-N-((1-methyl-1H-pyrazol-4-yl)methyl)cyclohexanecarboxamido)thiophene-2-carboxylic acid] | > 100 | 6.00 to 7.00 |
| CC(C)N(c1cc(C#CC(C)(C)O)sc1C(=O)O)C(=O)[C@H]1CC[C@H](C)CC1 [Compound 19, 5-(3-Hydroxy-3-methyl-but-1-ynyl)-3-[isopropyl-(trans-4-methyl-cyclohexanecarbonyl)-amino]-thiophene-2-carboxylic acid] | > 100 | 6.00 to 7.00 |
| Cc1nnc(CN(c2cc(C#CC(C)(C)C)sc2C(=O)O)C(=O)[C@H]2CC[C@H](C)CC2)o1 [Compound 24, 5-(3,3-Dimethyl-but-1-ynyl)-3-[(trans-4-methyl-cyclohexanecarbonyl)-(5-methyl-[1,3,4]oxadiazol-2-ylmethyl)-amino]-thiophene-2-carboxylic acid] | < 10 |  |
| CN(C)C(=O)[C@H]1C[C@@H](N(c2cc(C#CC(C)(C)C)sc2C(=O)O)C(=O)[C@H]2CC[C@H](C)CC2)C1 [Compound 11, 5-(3,3-dimethylbut-1-yn-1-yl)-3-(trans-4-methyl-N-(cis-3-(dimethylcarbamoyl)cyclobutyl)cyclohexanecarboxamido)thiophene-2-carboxylic acid] | 10 to 100 | > 7.00 |
| CC(C)(C)C#Cc1cc(N(C(=O)[C@H]2CC[C@H](C)CC2)C2CC=C(F)CC2)c(C(=O)O)s1 (relative stereo) [Compound 15, 5-(3,3-Dimethyl-but-1-ynyl)-3-[(4-fluoro-cyclohex-3-enyl)-(trans-4-methyl-cyclohexanecarbonyl)-amino]-thiophene-2-carboxylic acid] | 10 to 100 | > 7.00 |
| CC(C)(C)C#Cc1cc(N(C(=O)c2ccc(Cl)cc2Cl)[C@H]2CC[C@H](O)CC2)c(C(=O)O)s1 [Compound 90, 3-[(2,4-Dichloro-benzoyl)-(trans-4-hydroxy-cyclohexyl)-amino]-5-(3,3-dimethyl-but-1-ynyl)-thiophene-2-carboxylic acid] | 10 to 100 | 6.00 to 7.00 |
| Cc1ccccc1C(=O)N(c1cc(C#CC(C)(C)C)sc1C(=O)O)[C@H]1CC[C@H](O)CC1 [Compound 88, 5-(3,3-Dimethyl-but-1-ynyl)-3-[(trans-4-hydroxy-cyclohexyl)-(2-methyl-benzoyl)-amino]-thiophene-2-carboxylic acid] |  | 6.00 to 7.00 |
| CC(C)(C)C#Cc1cc(N(C(=O)[C@H]2CC[C@H](C)CC2)[C@H]2CCNC2)c(C(=O)O)s1 [Compound 57, 5-(3,3-Dimethylbut-1-yn-1-yl)-3-((trans)-4-methyl-N-((S)-pyrrolidin-3-yl)cyclohexanecarboxamido)thiophene-2-carboxylic acid] | > 100 | > 7.00 |
| CC(C)(C)C#Cc1cc(N(C(=O)[C@H]2CC[C@H](C)CC2)[C@H]2C[C@@H](CO)C2)c(C(=O)O)s1 [Compound 76, 5-(3,3-dimethylbut-1-yn-1-yl)-3-(trans-4-methyl-N-(cis-3-(hydroxymethyl)cyclobutyl)cyclohexanecarboxamido)thiophene-2-carboxylic acid] | > 100 | > 7.00 |
| Cn1nccc1CN(c1cc(C#CC(C)(C)C)sc1C(=O)O)C(=O)[C@H]1CC[C@H](C)CC1 [Compound 77, 5-(3,3-Dimethylbut-1-ynyl)-3-((trans)-4-methyl-N-((1-methyl-1H-pyrazol-5-yl)methyl)cyclohexanecarboxamido)thiophene-2-carboxylic acid] | > 100 | > 7.00 |
| CC(CN1CCOCC1)N(c1cc(C#CC(C)(C)C)sc1C(=O)O)C(=O)[C@H]1CC[C@H](C)CC1 (relative stereo) [Compound 72, 5-(3,3-Dimethylbut-1-yn-1-yl)-3-(trans-4-methyl-N-(1-morpholinopropan-2-yl)cyclohexanecarboxamido)thiophene-2-carboxylic acid] | 10 to 100 | > 7.00 |
| Cc1ccc(C(=O)N(c2cc(C#CC(C)(C)C)sc2C(=O)O)[C@H]2CC[C@H](O)CC2)c(F)c1F [Compound 89, 3-[(2,3-Difluoro-4-methyl-benzoyl)-(trans-4-hydroxy-cyclohexyl)-amino]-5-(3,3-dimethyl-but-1-ynyl)-thiophene-2-carboxylic acid] |  | > 7.00 |
| Cc1ccc(C(=O)N(c2cc(C#CC(C)(C)C)sc2C(=O)O)[C@H]2CC[C@H](O)CC2)c(Cl)c1 [Compound 84, 3-[(2-Chloro-4-methyl-benzoyl)-(trans-4-hydroxy-cyclohexyl)-amino]-5-(3,3-dimethyl-but-1-ynyl)-thiophene-2-carboxylic acid] |  | > 7.00 |
| C=CCO[C@H]1CC[C@H](N(c2cc(C#CC(C)(C)C)sc2C(=O)O)C(=O)[C@H]2CC[C@H](C)CC2)CC1 [Compound 12, 3-[(trans-4-Allyloxy-cyclohexyl)-(trans-4-methyl-cyclohexanecarbonyl)-amino]-5-(3,3-dimethyl-but-1-ynyl)-thiophene-2-carboxylic acid] | 10 to 100 | > 7.00 |
| CC(C)N(c1cc(C#Cc2ccccc2)sc1C(=O)O)C(=O)[C@H]1CC[C@H](C)CC1 [Compound 21, 3-[Isopropyl-(trans-4-methyl-cyclohexanecarbonyl)-amino]-5-phenylethynyl-thiophene-2-carboxylic acid] | 10 to 100 | 5.00 to 6.00 |
| CC(C)(C)C#Cc1cc(N(C(=O)c2ccc(C(F)(F)F)cc2)[C@H]2CC[C@H](O)CC2)c(C(=O)O)s1 [Compound 82, 5-(3,3-Dimethyl-but-1-ynyl)-3-[(trans-4-hydroxy-cyclohexyl)-(4-trifluoromethyl-benzoyl)-amino]thiophene-2-carboxylic acid] | 10 to 100 | 6.00 to 7.00 |
| CC(C)(C)C#Cc1cc(N(C(=O)c2ccc(F)cc2)[C@H]2CC[C@H](O)CC2)c(C(=O)O)s1 [Compound 92, 5-(3,3-Dimethyl-but-1-ynyl)-3-[(4-fluoro-benzoyl)-(trans-4-hydroxy-cyclohexyl)-amino]-thiophene-2-carboxylic acid] |  | 5.00 to 6.00 |
| COC(C)(C)C#Cc1cc(N(C(=O)[C@H]2CC[C@H](C)CC2)C(C)C)c(C(=O)O)s1 [Compound 22, 3-[Isopropyl-(trans-4-methyl-cyclohexanecarbonyl)-amino]-5-(3-methoxy-3-methyl-but-1-ynyl)-thiophene-2-carboxylic acid] | 10 to 100 | 6.00 to 7.00 |
